Results: patent US20100197650A1, “COMPOSITIONS AND METHODS OF TREATMENT COMPRISING CEFTAROLINE” (FOREST LABORATORIES HOLDINGS LTD., priority 2008, published 2010)
Values after ≈ are worked out from the molar mass of the structure shown. Where two headings read alike, the source gives them in different places.

Key:
[1] = system: ESBL-producing Klebsiella pneumoniae; assay: Susceptibility testing MIC/MBC, broth microdilution (Example 2); format: cell-based; details: for MBC range / MIC range: K. pneumonia (10) clinical isolates; for MBC / MIC: Klebsiella pneumoniae; for MBC: read-out: MBC; for MIC: read-out: MIC
[2] = system: P. aeruginosa; assay: as above; format: cell-based, Pseudomonas aeruginosa; details: for MBC range / MIC range: P. aeruginosa (20) clinical isolates; for MBC / MIC: Pseudomonas aeruginosa; for MBC: read-out: MBC; for MIC: read-out: MIC
[3] = system: AmpC-derepressed Enterobacter cloacae; assay: microbe, parasite or virus in culture; format: cell-based; details: for MBC range / MIC range: E. cloacae (10) clinical isolates; for MBC / MIC: Enterobacter cloacae
[4] = system: clinical Enterobacteriacae and P. aeruginosa isolates; assay: Susceptibility testing (Example 2), summary over species; format: cell-based; details: Pseudomonas aeruginosa; Enterobacteriacae (30 isolates); read-out: MIC values
[5] = system: ESBL-producing E. coli; assay: Susceptibility testing MIC/MBC, broth microdilution (Example 2); format: cell-based, Escherichia coli; details: for MBC range / MIC range: E. coli (10) clinical isolates; for MBC / MIC: Escherichia coli; for MBC: read-out: MBC; for MIC: read-out: MIC
[6] = system: Klebsiella pneumoniae; assay: MIC, broth microdilution (Example 1); format: cell-based; details: Klebsiella pneumoniae, read-out: MIC
Protocol: (§1) Stock solutions of all antibacterial agents were prepared at 80-fold (80×) the final target concentration in the appropriate solvent and the solution was allowed to stand for 60 minutes. All antibacterial agents were in solution under these conditions. The final drug concentrations in the FIC assay plates were set to bracket the MIC value of each agent for each test organism, unless the strain was totally resistant to the test agent.
(§2) The test organisms were originally received from clinical sources, or from the American Type Culture Collection. Upon receipt, the isolates were streaked onto the appropriate growth medium: Chocolate Agar for H. influenzae, Tryptic Soy Agar II (Becton Dickinson, Sparks, Md.) supplemented with 5% defibrinated sheep blood for streptococci, and unsupplemented Tryptic Soy Agar II for all other organisms. Colonies were harvested from these plates and a cell suspension was prepared in Tryptic Soy Broth (Becton Dickinson) containing cryoprotectant. Aliquots were then frozen at −80° C. On the day prior to assay, the frozen seeds of the organisms to be tested in that session were thawed and streaked for isolation onto the appropriate agar medium plates and incubated overnight at 35° C.
(§3) The test medium for H. influenzae was Haemophilus Test Medium. Streptococci were tested in Mueller Hinton II Broth (Becton Dickinson; Lot 6235472) supplemented with 2% lysed horse blood (Cleveland Scientific, Bath, Ohio; Lot H88621). All other organisms were tested in Mueller Hinton II Broth (Becton Dickinson, Lot 6235472). The broth was prepared at 1.05× normal weight/volume to offset the 5% volume of the drugs in the final test plates.
(§4) In order to select the proper test concentrations for each drug combination, minimal inhibitory concentration (MIC) values were first determined using the broth microdilution method previously described (Clinical and Laboratory Standards Institute. Methods for Dilution Antimicrobial Susceptibility Tests for Bacteria That Grow Aerobically; Approved Standard—Seventh Edition. Clinical and Laboratory Standards Institute document M7-A7 [ISBN 1-56238-587-9]. Clinical and Laboratory Standards Institute, 940 West Valley Road, Suite 1400, Wayne, Pa. 19087-1898 USA, 2006).
(§5) The wells of standard 96-well microdilution plates (Falcon 3918) were filled with 150 μL of 100% DMSO using the Multidrop 384. These plates were used to prepare the drug “mother plates” which provided the serial drug dilutions for the drug combination plates. The Biomek 2000 was used to transfer 150 μl of each stock solution (80×) from the wells in Column 1 of a deep well plate to the corresponding wells in Column 1 of the mother plate and to make seven 2-fold serial dilutions. Two mother plates, one for each drug, were combined to form a “checkerboard” pattern by transfer of equal volumes (using a multi-channel pipette) to the drug combination plate. Row H and Column 8 each contained serial dilutions of one of the agents alone for determination of the MIC.
(§6) Plates were stacked 3 high, covered with a lid on the top plate, placed in plastic bags, and incubated at 35° C. for approximately 20 hours. Following incubation, the microplates were removed from the incubator and viewed from the bottom using a ScienceWare plate viewer. Prepared reading sheets were marked for the MIC of drug 1 (row H), the MIC of drug 2 (column 8) and the wells of the growth-no growth interface.

[7] = system: Pseudomonas aeruginosa; assay: MIC, broth microdilution (Example 1); format: cell-based
Protocol: as §1, §2, §3, §4, §5, §6

[8] = system: Staphylococcus aureus; assay: MIC, broth microdilution (Example 1); format: cell-based
Protocol: as §1, §2, §3, §4, §5, §6

[9] = system: Escherichia coli; assay: MIC, broth microdilution (Example 1); format: cell-based; details: Escherichia coli, read-out: MIC
Protocol: as §1, §2, §3, §4, §5, §6

Compound `C[C@@H](O)[C@H]1C(=O)N2C(C(=O)O)=C(S[C@@H]3CN[C@H](C(=O)N(C)C)C3)[C@H](C)[C@H]12` [Meropenem] has an MBC range [1] of 0.06 to 0.125 µg/mL, an MIC range [1] of 0.03 to 0.06 µg/mL and an MBC ([1]; K. pneumonia isolate no. 5427) of 0.06 µg/mL (≈ 0.156 µM). The MIC ([1]; K. pneumonia isolate no. 5427) was 0.06 µg/mL (≈ 0.156 µM), the MBC ([1]; K. pneumonia isolate no. 5436) was 0.06 µg/mL (≈ 0.156 µM) and the MIC ([1]; K. pneumonia isolate no. 5436) was 0.06 µg/mL (≈ 0.156 µM). The MBC range [2] was 0.125 to 32 µg/mL, the MIC range [2] was 0.125 to 16 µg/mL and the MBC ([2]; P. aeruginosa isolate no. 796) was 2 µg/mL (≈ 5.22 µM). For the same compound, the MIC ([2]; P. aeruginosa isolate no. 796) was 1 µg/mL (≈ 2.61 µM), the MBC ([2]; P. aeruginosa isolate no. 956) was 2 µg/mL (≈ 5.22 µM) and the MIC ([2]; P. aeruginosa isolate no. 956) was 0.25 µg/mL (≈ 0.652 µM). It also gave an MBC ([2]; P. aeruginosa isolate no. 1019) of 2 µg/mL (≈ 5.22 µM), an MIC ([2]; P. aeruginosa isolate no. 1019) of 1 µg/mL (≈ 2.61 µM) and an MBC ([2]; P. aeruginosa isolate no. 1037) of 1 µg/mL (≈ 2.61 µM). It also gave an MIC ([2]; P. aeruginosa isolate no. 1037) of 0.5 µg/mL (≈ 1.3 µM), an MBC range [3] of 0.03 to 0.5 µg/mL and an MIC range [3] of 0.03 to 0.25 µg/mL. For the same compound, the MBC ([3]; E. cloacae isolate no. 4073) was 0.5 µg/mL (≈ 1.3 µM), the MIC ([3]; E. cloacae isolate no. 4073) was 0.25 µg/mL (≈ 0.652 µM) and the MBC ([3]; E. cloacae isolate no. 5420) was 0.125 µg/mL (≈ 0.326 µM). For the same compound, the MIC ([3]; E. cloacae isolate no. 5420) was 0.125 µg/mL (≈ 0.326 µM), the MIC [4] was ≤ 4 µg/mL and the MBC range [5] was 0.06 to 0.125 µg/mL. It also gave an MIC range [5] of 0.03 to 0.06 µg/mL, an MBC ([5]; E. coli isolate no. 5401) of 0.06 µg/mL (≈ 0.156 µM) and an MIC ([5]; E. coli isolate no. 5401) of 0.06 µg/mL (≈ 0.156 µM). It also gave an MBC ([5]; E. coli isolate no. 5411) of 0.06 µg/mL (≈ 0.156 µM), an MIC ([5]; E. coli isolate no. 5411) of 0.06 µg/mL (≈ 0.156 µM) and an MIC ([6]; K. pneumoniae 1468 (ESBL)) of 0.06 µg/mL. The MIC ([7]; P. aeruginosa 2555) was 4 µg/mL, the MIC ([7]; P. aeruginosa 2559) was 0.12 µg/mL and the MIC ([8]; S. aureus 2296 (CA-MRSA)) was >16^a^ μg/mL. The MIC ([8]; Staphylococcus aureus, MRSA, S. aureus 2202 (CA-MRSA), read-out: MIC) was 4 µg/mL and the MIC ([8]; Staphylococcus aureus, MRSA, S. aureus 2296 (CA-MRSA), read-out: MIC) was > 16 µg/mL.
`NCC[C@H](O)C(=O)N[C@@H]1C[C@H](N)[C@@H](O[C@H]2O[C@H](CN)[C@@H](O)[C@H](O)[C@H]2O)[C@H](O)[C@H]1O[C@H]1O[C@H](CO)[C@@H](O)[C@H](N)[C@H]1O` [Amikacin] gave an MBC range [1] of 1 to 128 µg/mL, an MIC range [1] of 1 to 32 µg/mL and an MBC ([1]; K. pneumonia isolate no. 5427) of 2 µg/mL (≈ 3.42 µM). For the same compound, the MIC ([1]; K. pneumonia isolate no. 5427) was 2 µg/mL (≈ 3.42 µM), the MBC ([1]; K. pneumonia isolate no. 5436) was 2 µg/mL (≈ 3.42 µM) and the MIC ([1]; K. pneumonia isolate no. 5436) was 1 µg/mL (≈ 1.71 µM). It also gave an MBC range [2] of 2 to 64 µg/mL, an MIC range [2] of 2 to 16 µg/mL and an MBC ([2]; P. aeruginosa isolate no. 796) of 32 µg/mL (≈ 54.6 µM). The MIC ([2]; P. aeruginosa isolate no. 796) was 16 µg/mL (≈ 27.3 µM), the MBC ([2]; P. aeruginosa isolate no. 956) was 64 µg/mL (≈ 109 µM) and the MIC ([2]; P. aeruginosa isolate no. 956) was 4 µg/mL (≈ 6.83 µM). It also gave an MBC ([2]; P. aeruginosa isolate no. 1019) of 4 µg/mL (≈ 6.83 µM), an MIC ([2]; P. aeruginosa isolate no. 1019) of 4 µg/mL (≈ 6.83 µM) and an MBC ([2]; P. aeruginosa isolate no. 1037) of 4 µg/mL (≈ 6.83 µM). For the same compound, the MIC ([2]; P. aeruginosa isolate no. 1037) was 2 µg/mL (≈ 3.42 µM), the MBC range [3] was 1 to 8 µg/mL and the MIC range [3] was 0.5 to 4 µg/mL. For the same compound, the MBC ([3]; E. cloacae isolate no. 4073) was 8 µg/mL (≈ 13.7 µM), the MIC ([3]; E. cloacae isolate no. 4073) was 1 µg/mL (≈ 1.71 µM) and the MBC ([3]; E. cloacae isolate no. 5420) was 2 µg/mL (≈ 3.42 µM). It also gave an MIC ([3]; E. cloacae isolate no. 5420) of 1 µg/mL (≈ 1.71 µM), an MBC range [5] of 4 to 64 µg/mL and an MIC range [5] of 1 to 16 µg/mL. For the same compound, the MBC ([5]; E. coli isolate no. 5401) was 4 µg/mL (≈ 6.83 µM), the MIC ([5]; E. coli isolate no. 5401) was 2 µg/mL (≈ 3.42 µM) and the MBC ([5]; E. coli isolate no. 5411) was 16 µg/mL (≈ 27.3 µM). It also gave an MIC ([5]; E. coli isolate no. 5411) of 8 µg/mL (≈ 13.7 µM), an MIC ([6]; K. pneumoniae 1340) of 1 µg/mL and an MIC ([6]; K. pneumoniae 1461) of 1 µg/mL. For the same compound, the MIC ([9]; E. coli 1587) was 4 µg/mL, the MIC ([9]; E. coli 2273 (ESBL)) was 8 µg/mL and the MIC ([7]; P. aeruginosa 2555) was 8 µg/mL. It also gave an MIC ([7]; P. aeruginosa 2559) of 4 µg/mL.
